# Experiments:
# Assay type in all cases: cell-based, human
# Pa9 gene [1] = experiment: Pa9 gene expression by real-time RT-PCR in HuH7 hepatocytes; settings: for Pa9 (W38098) gene expression, Percentage ± SE (%): HuH7 hepatocytes, about 20-24 h, vehicle control = 100
# Description: (§1) Human hepatocyte HuH7 cells, which are epithelial cells of liver, were obtained from Japan Health Science Research Resources Bank (Osaka, Japan). Human primary adipocytes, which are connective tissue cells specialized for the synthesis and storage of fat, were obtained from Zen-Bio, Inc (Research Triangle Park, NC). Human primary skeletal muscle cells (SKMC) were obtained from Cambrex Bio Science (Walkersville, Md.). PPARα agonists, Wy14643 (Agatha, et al, 2000, Archives of Biochemistry and Biophysics 380:353-359) and fenofibrates were obtained from Cayman Chemical (Ann Arbor, Mich.) and Sigma (St Louis, Mo.), respectively.
# (§2) Human HuH7 cells were cultured in Dulbecco's Modified Eagle Medium with 10% Fetal Bovine Serum (Gibco, N.Y.). Cells were treated with charcoal-stripped, delipidated calf serum (5%) (Sigma, St Louis, Mo.) for about 4-18 hours. Then, cells were treated with different concentrations of PPARα agonist (Wy14643 or fenofibrates) for about 20-24 h. Human SKM cells were cultured in Skeletal Muscle Growth Medium (Cambrex Bio Science, Walkersville, Md.), and were treated with different concentrations of PPARα agonist (Wy14643 or fenofibrates) for about 18-20 hours. Human primary adipocytes were cultured in Preadipocyte Medium, (Cat #PM—1, Zen-Bio, Inc., Research Triangle Park, NC), and were treated with different concentrations of PPARα agonist (Wy14643 or fenofibrates) for about 18-20 hours.
# (§3) Total RNA was purified from cultured cells following the protocol provided by the manufacturer (Trizon method, Invitrogen Inc. Ca). The polymerase chain reaction (PCR) primers and fluorescent probes (TagMan probes) for Pa9, Pa13, and Pa21 were designed from GenBank sequences of accession numbers W30988, AB000584, and NM_080725, respectively. The primers and probes were designed using the software PrimerDesign (Applied Biosystems, Foster City, Calif.). The PCR primers for Pa9 were SEQ ID NO: 7, (5-[…]) and SEQ ID NO: 8 (5-[…]). […] The PCR primers for Pa13 were SEQ ID NO: 10 (5-[…], T) and SEQ ID NO: 11 (5-[…] T). […] The PCR primers for Pa21 were SEQ ID NO: 13 (5-[…] C) and SEQ ID NO: 14 (5-[…]). […] All primers and probes were synthesized by Keystone Labs (Camarillo, Calif.).
# (§4) Reverse transcription (RT) and PCR were conducted in one step using “One-Step RT-PCR Master Mix Reagent” kit (Applied Biosystems, Foster City, Calif.) in ABI PRISM 7700 Sequence Detection System (Applied Biosystems). Each reaction was performed in a total volume of 25 μl containing 40 ng of total RNA. The reaction condition was: 48° C. for 30 minutes, 60° C. for 30 minutes, 94° C. for 5 minutes, followed by 40 cycles of 94° C. for 20 seconds and 60° C. for 1 minute. The primers for 18S ribosomal RNA were developed and provided by Applied Biosystems. The measurement of human 18S ribosomal RNA was used as an internal control for normalization of measuring and loading errors. PCR data were collected by Ct value (the cycle number at which logarithmic PCR plots cross a calculated threshold line) according to the manufacturer's guidelines and the value was used to determine the Δ^Ct (Ct of the target gene minus the Ct of 18S ribosomal RNA controls). Relative mRNA level was calculated using the equation 2^−ΔΔCt as described previously (Heid et al., 1996, Genome Res. 6:986-994).
# Pa9 gene [2] = experiment: Pa9 gene expression in SKM cells with or without siRNA-reduced PPARα expression
# Description: (§5) SiRNA oligos specific to PPARα were designed and used to knock-down or reduce the expression level of PPARα in human SKMU cells following procedures known to those skilled in the art (Brummelkamp et al., 2002, Science, 296: 550-553). Four sets of siRNA oligo were originally designed using GenBank accession number S74349 (human peroxisome proliferator activated receptor alpha, cDNA; PPARα) as the template, and the software, Target Finder (Ambion, Austin, Tex.). […] The sequences for the two sets of siRNA correspond to 907 bp to 927 bp (SEQ ID NO: 21, 5′-[…] A) and 1106 bp to 1126 bp of the cDNA (SEQ ID NO: 22, 5′-[…] T) relative to the first nucleotide of the start codon. The oligos were chemically synthesized by Ambion Inc. (Austin, Tex.). The universal negative control siRNA oligo was purchased from Ambion.
# Human primary skeletal muscle cells (hSKM, provided by Cambrex, Md.) were prepared the day before transfection at the density of 4.67×10^4 cells/per 60 mm dish (about 20% confluence). The cells were cultured at 37° C., 5% CO2 for 24 hrs with antibiotics-free SKGM medium (Cambrex, Md.).
# Transfection of siRNAs into the cultured cells was carried out following the manufacturer's instruction. Briefly, before the transfection, siPORT Amine (Ambion, Tex.) was first diluted with SKGM medium free of antibiotics and serum (10 μl siPORT/ml), followed by adding siRNA (50 nM) into the mixture. SKM cells (prepared in advance in multiple dishes) were transfected with 2 ml of the mixture for 4 hrs. Additional 8 ml of fresh SKGM medium (without antibiotics) were added into each dish to maximize cell growth and reduce potential cytotoxicity caused by the transfection reagent. As controls, the cells were also transfected with siPORT Amine alone or siPORT Amine plus universal negative control siRNA.
# (§6) Again, total RNA was isolated from the cells and real-time PCR was performed and the expression levels of target genes of interest, such as Pa9, 13 and 21, were quantitatively measured using the RT-PCR technique described in Example 1.
# Pa13 gene [3] = experiment: Pa13 gene expression in SKM cells with siRNA-reduced PPARα expression; settings: SKMU cells with reduced PPARα expression
# Description: as §5
# Human primary skeletal muscle cells (hSKM, provided by Cambrex, Md.) were prepared the day before transfection at the density of 4.67×10^4 cells/per 60 mm dish (about 20% confluence). The cells were cultured at 37° C., 5% CO2 for 24 hrs with antibiotics-free SKGM medium (Cambrex, Md.). […]
# as §6
# Pa13 gene [4] = experiment: Pa13 gene expression by real-time RT-PCR in HuH7 hepatocytes; settings: about 20-24 h, vehicle control = 100
# Description: as §1, §2, §3, §4
smiles,measurement,setting,value
Cc1cccc(Nc2cc(Cl)nc(SCC(=O)O)n2)c1C [Wy14643],"Pa9 (W38098) gene expression, Percentage ± SE (%)",Pa9 gene [1]; 3 uM,90 ± 17%
same,"Pa9 (W38098) gene expression, Percentage ± SE (%)",Pa9 gene [1]; 10 uM,190 ± 62.1%
same,"Pa9 (W38098) gene expression, Percentage ± SE (%)",Pa9 gene [1]; 30 uM,200 ± 48%
same,"Pa9 (W38098) gene expression, Percentage ± SE (%)",Pa9 gene [1]; 100 uM,540 ± 57.8%
same,"Pa9 (W38098) gene expression, Percentage ± SE (%)",Pa9 gene [1]; 300 uM,690 ± 42.8%
same,"gene expression of Pa9, Pa13, or Pa21 (statement in words)","Pa9 gene [1]; human HuH7 cells, primary SKMU cells, or primary adipocytes (Tables 1-3)",increased gene expression
same,increase of Pa9 gene expression,"Pa9 gene [2]; SKM cells with reduced gene expression of PPARα (siRNA), 16 hrs treatment",2.35 fold
same,induction of Pa9 gene expression,"Pa9 gene [2]; SKM cells without reduced expression level of PPARα, 16 hrs treatment",33.48 fold
same,induction of Pa9 gene expression (FIG. 5),Pa9 gene [2]; SKMU cells with reduced PPARα expression,decreased induction
same,induction of Pa13 gene expression (FIG. 6),Pa13 gene [3],no detectable induction
same,"Pa13 (N26311) gene expression, Percentage ± SE (%)",Pa13 gene [4]; 3 uM,70 ± 28%
same,"Pa13 (N26311) gene expression, Percentage ± SE (%)",Pa13 gene [4]; 10 uM,100 ± 4%
same,"Pa13 (N26311) gene expression, Percentage ± SE (%)",Pa13 gene [4]; 30 uM,140 ± 26.4%
same,"Pa13 (N26311) gene expression, Percentage ± SE (%)",Pa13 gene [4]; 100 uM,130 ± 17.7%
same,"Pa13 (N26311) gene expression, Percentage ± SE (%)",Pa13 gene [4]; 300 uM,720 ± 36.4%

# Reference: patent US20050191668A1, “Methods of using peroxisome proliferator-activated receptor alpha target genes” (priority 2004, published 2005)
